Experimental data taken from ChEMBL document CHEMBL1201862, “PubChem BioAssay data set” (2004).
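Compound exposure: 48 hours, 5 concentrations, 96-well plates. At the GI50, growth is halved.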 Calls of active or inactive are those of the source. Cut-off read from the data, not from the text of the source: active = GI50 up to about 1.1 µM and inactive = higher.

How the values were obtained:
Assay in all cases: NCI anticancer screen, dose series, 48 h
[1] = system: SN12C
[2] = system: HT-29
[3] = system: NCI/ADR-RES
[4] = system: SW-620
[5] = system: SNB-75
[6] = system: HL-60
[7] = system: CCRF-CEM
[8] = system: Hs-578T
[9] = system: CAKI-1
[10] = system: SF-295
[11] = system: SK-OV-3
[12] = system: DU-145
[13] = system: SNB-19
[14] = system: NCI-H226
[15] = system: OVCAR-3
[16] = system: NCI-H460
[17] = system: T47D
[18] = system: RXF 393
[19] = system: M14
[20] = system: MOLT-4
[21] = system: IGROV-1
[22] = system: HCT-116
[23] = system: NCI-H23
[24] = system: SF-268
[25] = system: K562
[26] = system: 786-0
[27] = system: HCT-15
[28] = system: SR
[29] = system: UACC-62
[30] = system: Malme-3M
[31] = system: A549
[32] = system: HOP-92
[33] = system: MDA-N
[34] = system: U-251
[35] = system: OVCAR-4
[36] = system: NCI-H522
[37] = system: HOP-62
[38] = system: UACC-257
[39] = system: MDA-MB-435
[40] = system: UO-31
[41] = system: A498
[42] = system: MCF7
[43] = system: KM12
[44] = system: SK-MEL-5
[45] = system: BT-549
[46] = system: PC-3
[47] = system: SK-MEL-28
[48] = system: MDA-MB-231
[49] = system: COLO 205
[50] = system: EKVX
[51] = system: OVCAR-8
[52] = system: OVCAR-5
[53] = system: SK-MEL-2
[54] = system: TK-10
[55] = system: SF-539
[56] = system: ACHN
[57] = system: RPMI-8226
[58] = system: LOX IMVI
[59] = system: HCC 2998

Measured: GI50

Cc1c(CCCl)c(N=[N+]=[N-])n2c(nc3ccccc32)c1C#N
active: [4] 0.355 µM | [6] 0.348 µM | [7] 0.236 µM | [8] 0.986 µM | [17] 0.839 µM | [20] 0.249 µM | [21] 1.01 µM | [22] 0.498 µM | [25] 0.29 µM | [26] 0.601 µM | [28] 0.311 µM | [36] 0.163 µM | [42] 0.47 µM | [44] 0.491 µM | [45] 0.867 µM | [49] 1.07 µM | [57] 0.385 µM | [58] 0.902 µM
inactive: [1] 1.71 µM | [2] 1.58 µM | [3] 1.69 µM | [5] 1.46 µM | [9] 1.39 µM | [10] 1.67 µM | [11] 2.11 µM | [12] 2.24 µM | [13] 2.77 µM | [14] 1.82 µM | [15] 1.39 µM | [16] 1.39 µM | [18] 1.4 µM | [19] 1.25 µM | [23] 1.41 µM | [24] 2.22 µM | [29] 1.34 µM | [30] 1.45 µM | [31] 2.12 µM | [32] 1.25 µM | [33] 1.56 µM | [34] 2.17 µM | [35] 1.53 µM | [37] 2.13 µM | [38] 1.6 µM | [39] 1.43 µM | [40] 1.65 µM | [41] 1.64 µM | [43] 1.66 µM | [46] 1.42 µM | [47] 1.58 µM | [48] 1.42 µM | [50] 1.87 µM | [51] 1.7 µM | [52] 1.94 µM | [53] 1.48 µM | [54] 1.52 µM | [55] 1.82 µM | [56] 1.22 µM
1.3 µM: [27]

O=C1N=C(SC2OC(CO)C(O)C(O)C2O)S/C1=C\c1ccccc1 (centres undefined)
inactive: [1] > 100 µM | [2] > 100 µM | [3] > 100 µM | [4] > 100 µM | [5] > 100 µM | [6] > 100 µM | [7] > 100 µM | [8] > 100 µM | [9] > 100 µM | [10] > 100 µM | [11] > 100 µM | [12] > 100 µM | [13] > 100 µM | [14] > 100 µM | [15] > 100 µM | [16] > 100 µM | [17] > 100 µM | [18] 25.6 µM | [19] > 100 µM | [20] > 100 µM | [59] > 100 µM | [21] > 100 µM | [23] > 100 µM | [24] > 100 µM | [25] > 100 µM | [26] > 100 µM | [28] > 100 µM | [29] > 100 µM | [30] > 100 µM | [31] > 100 µM | [33] > 100 µM | [36] > 100 µM | [37] > 100 µM | [38] > 100 µM | [39] > 100 µM | [40] > 100 µM | [41] > 100 µM | [42] > 100 µM | [43] > 100 µM | [44] > 100 µM | [45] > 100 µM | [46] > 100 µM | [47] > 100 µM | [48] > 100 µM | [51] > 100 µM | [52] > 100 µM | [53] > 100 µM | [54] > 100 µM | [55] > 100 µM | [56] > 100 µM | [57] > 100 µM | [58] > 100 µM
> 100 µM: [27]

C=C(C)[C@@H]1CC[C@]2(C)CC[C@]3(C)[C@H](CC[C@@H]4[C@@]5(C)CC[C@H](OC(=O)c6ccccc6)C(C)(C)[C@@H]5CC[C@]43C)[C@@H]12
> 100 µM: [27]
inactive: [1] > 100 µM | [2] > 100 µM | [3] > 100 µM | [4] > 100 µM | [5] 90.8 µM | [6] > 100 µM | [7] > 100 µM | [8] > 100 µM | [9] > 100 µM | [10] > 100 µM | [11] > 100 µM | [12] > 100 µM | [13] > 100 µM | [14] > 100 µM | [15] > 100 µM | [16] > 100 µM | [17] > 100 µM | [19] > 100 µM | [20] > 100 µM | [59] > 100 µM | [21] > 100 µM | [22] > 100 µM | [23] > 100 µM | [24] > 100 µM | [25] > 100 µM | [26] > 100 µM | [28] 48.2 µM | [29] > 100 µM | [30] > 100 µM | [31] > 100 µM | [32] > 100 µM | [33] > 100 µM | [34] > 100 µM | [35] > 100 µM | [36] > 100 µM | [37] > 100 µM | [38] > 100 µM | [39] > 100 µM | [40] > 100 µM | [41] > 100 µM | [42] > 100 µM | [43] > 100 µM | [44] > 100 µM | [45] > 100 µM | [46] > 100 µM | [47] > 100 µM | [48] > 100 µM | [49] > 100 µM | [50] > 100 µM | [51] > 100 µM | [52] > 100 µM | [53] > 100 µM | [54] > 100 µM | [55] > 100 µM | [56] > 100 µM | [57] > 100 µM | [58] > 100 µM
